Experimental data as given in ChEMBL document CHEMBL1201862, “PubChem BioAssay data set” (2004).
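Cells were grown in 96-well plates and exposed to each compound for 48 hours at five concentrations; endpoints were interpolated linearly between bracketing concentrations, or set to the highest concentration if not reached. The concentration for 50% growth inhibition is given as GI50.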 Calls of active or inactive are those of the source. No stated cut-off is given here; in the data, active = GI50 up to about 1.1 µM and inactive = higher.

What was measured:
Test in all cases: DTP human tumour cell line panel, 48 h
ACHN = system: ACHN
MCF7 = system: MCF7
786-0 = system: 786-0
TK-10 = system: TK-10
RPMI-8226 = system: RPMI-8226
MDA-N = system: MDA-N
SNB-19 = system: SNB-19
SN12C = system: SN12C
COLO 205 = system: COLO 205
UACC-62 = system: UACC-62
SK-MEL-2 = system: SK-MEL-2
A549 = system: A549
Malme-3M = system: Malme-3M
T47D = system: T47D
NCI-H522 = system: NCI-H522
HT-29 = system: HT-29
A498 = system: A498
NCI-H23 = system: NCI-H23
UO-31 = system: UO-31
SW-620 = system: SW-620
CAKI-1 = system: CAKI-1
EKVX = system: EKVX
U-251 = system: U-251
OVCAR-3 = system: OVCAR-3
SK-MEL-5 = system: SK-MEL-5
BT-549 = system: BT-549
SF-539 = system: SF-539
HOP-62 = system: HOP-62
UACC-257 = system: UACC-257
OVCAR-5 = system: OVCAR-5
M14 = system: M14
SF-268 = system: SF-268
NCI/ADR-RES = system: NCI/ADR-RES
OVCAR-8 = system: OVCAR-8
HCT-15 = system: HCT-15
HOP-92 = system: HOP-92
Hs-578T = system: Hs-578T
KM12 = system: KM12
OVCAR-4 = system: OVCAR-4
SF-295 = system: SF-295
MDA-MB-435 = system: MDA-MB-435
CCRF-CEM = system: CCRF-CEM
LOX IMVI = system: LOX IMVI
HCT-116 = system: HCT-116
DU-145 = system: DU-145
IGROV-1 = system: IGROV-1
SK-MEL-28 = system: SK-MEL-28
HL-60 = system: HL-60
MOLT-4 = system: MOLT-4
PC-3 = system: PC-3
SK-OV-3 = system: SK-OV-3
NCI-H226 = system: NCI-H226
MDA-MB-231 = system: MDA-MB-231
SR = system: SR
K562 = system: K562
NCI-H460 = system: NCI-H460
SNB-75 = system: SNB-75
HCC 2998 = system: HCC 2998
RXF 393 = system: RXF 393

**Q.** What does the source list for `CCCCC(=O)/C=c1/cc(C)[nH]c2cccc3cnn1c32`?
**A.** GI50 (ACHN): > 100 µM (inactive); GI50 (MCF7): > 100 µM (inactive); GI50 (786-0): > 100 µM (inactive); GI50 (TK-10): > 100 µM (inactive); GI50 (RPMI-8226): 61.9 µM (inactive); GI50 (MDA-N): > 100 µM (inactive); GI50 (SNB-19): > 100 µM (inactive); GI50 (SN12C): > 100 µM (inactive); GI50 (COLO 205): > 100 µM (inactive); GI50 (UACC-62): > 100 µM (inactive); GI50 (SK-MEL-2): > 100 µM (inactive); GI50 (A549): > 100 µM (inactive); GI50 (Malme-3M): > 100 µM (inactive); GI50 (T47D): 16 µM (inactive); GI50 (NCI-H522): > 100 µM (inactive); GI50 (HT-29): 60.1 µM (inactive); GI50 (A498): > 100 µM (inactive); GI50 (NCI-H23): > 100 µM (inactive); GI50 (UO-31): > 100 µM (inactive); GI50 (SW-620): > 100 µM (inactive); GI50 (CAKI-1): > 100 µM (inactive); GI50 (EKVX): > 100 µM (inactive); GI50 (U-251): > 100 µM (inactive); GI50 (OVCAR-3): > 100 µM (inactive); GI50 (SK-MEL-5): > 100 µM (inactive); GI50 (BT-549): > 100 µM (inactive); GI50 (SF-539): > 100 µM (inactive); GI50 (HOP-62): > 100 µM (inactive); GI50 (UACC-257): > 100 µM (inactive); GI50 (OVCAR-5): > 100 µM (inactive); GI50 (M14): > 100 µM (inactive); GI50 (SF-268): > 100 µM (inactive); GI50 (NCI/ADR-RES): > 100 µM (inactive); GI50 (OVCAR-8): > 100 µM (inactive); GI50 (HCT-15): > 100 µM; GI50 (HOP-92): 68.9 µM (inactive); GI50 (Hs-578T): > 100 µM (inactive); GI50 (KM12): > 100 µM (inactive); GI50 (OVCAR-4): > 100 µM (inactive); GI50 (SF-295): > 100 µM (inactive); GI50 (MDA-MB-435): 64 µM (inactive); GI50 (CCRF-CEM): > 100 µM (inactive); GI50 (LOX IMVI): > 100 µM (inactive); GI50 (HCT-116): > 100 µM (inactive); GI50 (DU-145): > 100 µM (inactive); GI50 (IGROV-1): > 100 µM (inactive); GI50 (SK-MEL-28): > 100 µM (inactive); GI50 (HL-60): > 100 µM (inactive); GI50 (MOLT-4): > 100 µM (inactive); GI50 (PC-3): 49.1 µM (inactive); GI50 (SK-OV-3): > 100 µM (inactive); GI50 (NCI-H226): > 100 µM (inactive); GI50 (MDA-MB-231): > 100 µM (inactive); GI50 (SR): 48 µM (inactive)

**Q.** What does the source list for `Sc1ncnc2c1ncn2Cc1ccco1`?
**A.** GI50 (ACHN): > 100 µM (inactive); GI50 (MCF7): > 100 µM (inactive); GI50 (786-0): > 100 µM (inactive); GI50 (TK-10): > 100 µM (inactive); GI50 (RPMI-8226): > 100 µM (inactive); GI50 (MDA-N): > 100 µM (inactive); GI50 (SNB-19): > 100 µM (inactive); GI50 (SN12C): > 100 µM (inactive); GI50 (COLO 205): > 100 µM (inactive); GI50 (UACC-62): > 100 µM (inactive); GI50 (SK-MEL-2): > 100 µM (inactive); GI50 (A549): > 100 µM (inactive); GI50 (K562): > 100 µM (inactive); GI50 (NCI-H460): > 100 µM (inactive); GI50 (Malme-3M): > 100 µM (inactive); GI50 (T47D): > 100 µM (inactive); GI50 (NCI-H522): > 100 µM (inactive); GI50 (HT-29): > 100 µM (inactive); GI50 (A498): > 100 µM (inactive); GI50 (NCI-H23): > 100 µM (inactive); GI50 (UO-31): > 100 µM (inactive); GI50 (SW-620): > 100 µM (inactive); GI50 (CAKI-1): > 100 µM (inactive); GI50 (EKVX): > 100 µM (inactive); GI50 (U-251): > 100 µM (inactive); GI50 (OVCAR-3): > 100 µM (inactive); GI50 (SK-MEL-5): > 100 µM (inactive); GI50 (SNB-75): > 100 µM (inactive); GI50 (BT-549): > 100 µM (inactive); GI50 (SF-539): > 100 µM (inactive); GI50 (HOP-62): > 100 µM (inactive); GI50 (UACC-257): > 100 µM (inactive); GI50 (OVCAR-5): > 100 µM (inactive); GI50 (HCC 2998): > 100 µM (inactive); GI50 (M14): > 100 µM (inactive); GI50 (SF-268): > 100 µM (inactive); GI50 (NCI/ADR-RES): > 100 µM (inactive); GI50 (OVCAR-8): > 100 µM (inactive); GI50 (HCT-15): > 100 µM; GI50 (HOP-92): > 100 µM (inactive); GI50 (Hs-578T): > 100 µM (inactive); GI50 (KM12): > 100 µM (inactive); GI50 (OVCAR-4): > 100 µM (inactive); GI50 (SF-295): > 100 µM (inactive); GI50 (MDA-MB-435): > 100 µM (inactive); GI50 (LOX IMVI): > 100 µM (inactive); GI50 (HCT-116): > 100 µM (inactive); GI50 (RXF 393): > 100 µM (inactive); GI50 (DU-145): > 100 µM (inactive); GI50 (IGROV-1): > 100 µM (inactive); GI50 (SK-MEL-28): > 100 µM (inactive); GI50 (MOLT-4): > 100 µM (inactive); GI50 (PC-3): > 100 µM (inactive); GI50 (SK-OV-3): > 100 µM (inactive); GI50 (NCI-H226): > 100 µM (inactive); GI50 (MDA-MB-231): > 100 µM (inactive); GI50 (SR): > 100 µM (inactive)
